Laboratory results from US9457093B2, “Solid dispersions of a ERB2 (HER2) inhibitor” (Array BioPharma Inc., priority 2011, dated 2016).

Assay: Dissolution testing at pH 6.5 in phosphate buffer at 37° C.
Format: physicochemical
Details: pH 6.5 phosphate buffer, about 240 minutes
Method: Dissolution testing was performed at a pH of 6.5 in phosphate buffer. The solid dispersion was suspended in H2O and added directly to the buffer solution at 37° C. The dissolution profile was collected over a period of about 240 minutes. The results are in FIG. 2.
Dissolution testing was performed at a pH of 6.5 in phosphate buffer. The solid dispersion was suspended in H2O and added directly to the buffer solution at 37° C. The dissolution profile was collected over a period of about 240 minutes. The results are in FIG. 3.
Dissolution testing was performed at a pH of 6.5 in phosphate buffer. The solid dispersion was suspended in H2O and added directly to the buffer solution at 37° C. The dissolution profile was collected over a period of about 240 minutes. The results are in FIG. 4.
Dissolution testing was performed at a pH of 6.5 in phosphate buffer. The solid dispersion was suspended in H2O and added directly to the buffer solution at 37° C. The dissolution profile was collected over a period of about 240 minutes. The results are in FIG. 5.
Dissolution testing was performed at a pH of 6.5 in phosphate buffer. The solid dispersion was suspended in H2O and added directly to the buffer solution at 37° C. The dissolution profile was collected over a period of about 240 minutes. The results are in FIG. 6.
Dissolution testing was performed at a pH of 6.5 in phosphate buffer. […]

AUC for the free drug species: 5490 ng·h/mL
Cmax for the free drug species: 440 ng/mL
SMILES: Cc1cc(Nc2ncnc3ccc(NC4=NC(C)(C)CO4)cc23)ccc1Oc1ccn2ncnc2c1 [Example 12, N4-(4-([1,2,4]triazolo[1,5-α]pyridin-7-yloxy)-3-methylphenyl)-N6-(4,4-dimethyl-4,5-dihydrooxazol-2-yl)quinazoline-4,6-diamine freebase hemi-ethanolate]
